We go through eight molecules from patent US9328084B2, “Nitrogen-containing biphenyl compounds, pharmaceutical compositions of same, preparation methods and anti-HIV-1 uses thereof” (Kunming Institute of Botany, The Chinese Academy of Sciences, priority 2010, dated 2016).

Read-outs that look alike come from different tables or passages of the source.

Assay type in all cases: cell-based
Data set [1] has as its system C8166 cells. As to the kind of experiment: Cytotoxicity test on C8166 host cell (MTT colorimetry). As to conditions: 3 days. How it is done: (§1) Cytotoxicity Test of the Compounds 5-12 Obtained in the Above Examples on C8166 Host Cell 100 μL of 4×10^5/mL C8166 cell suspension was mixed with different candidate compound solutions. Set three repeated wells. Meanwhile, set compound-free control wells. Culture was conducted at 37° C. and 5% CO2 for three days. Cell toxicity was tested using MTT colorimetry. OD value was tested using ELX800 ELISA instrument, with the measurement wavelength of 595 nm and the reference wavelength of 630 nm. […] Calculation method and formula: dose-response curve was plotted according to the experimental results; according to Reed & Muench method, 50% effective concentration (EC50) to inhibit viruses, 50% Cytotoxic Concentration (CC50) and anti-HIV-1 activity in the Therapeutic Index (TI) were calculated according to the formula: TI=CC50/EC50.

Data set [2] deals with HIV-1IIIB. As to the kind of experiment: Inhibition test on HIV-1IIIB induced cytopathic effect (syncytium formation) of C8166. Conditions: for EC50: Human immunodeficiency virus 1, C8166, 72 h, HIV-1IIIB in C8166 cells, 3 days; for Therapeutic index (TI): TI=CC50/EC50; for anti-HIV-1 activity (in words): comment on Table 1, relative to Compound 5. The procedure:
Inhibition Test of the Compounds 5-12 Obtained in the Above Examples on HIV-1IIIB Induced Cytopathic Effect (CPE) of C8166 8×10^5/mL C8166 cell suspension was inoculated in 50 μL/well into a 96-well cell culture plate containing compound diluted in multiple proportions in 100 μL/well, to which was then added 50 μL of HIV-1IIIB diluted supernatant (M.O.I. 0.0016). Set three repeated wells, at the same time, set normal cell control wells that are free of the compound. Culture was conducted at 37° C. and 5% CO2 for three days. Syncytium formation was counted using an inverted microscope (100×). EC50 (50% Effective Concentration), i.e., the concentration of the compound that inhibits 50% syncytium formation, was calculated. Calculation method and formula: dose-response curve was plotted according to the experimental results; according to Reed & Muench method, 50% effective concentration (EC50) to inhibit viruses, 50% Cytotoxic Concentration (CC50) and anti-HIV-1 activity in the Therapeutic Index (TI) were calculated according to the formula: TI=CC50/EC50.
On the technique in general: Cytopathic effects are the visible damage that an infection or toxin causes in cultured cells.

The nature of data set [3]: Cytotoxicity test on C8166 host cell (MTT colorimetry). As to conditions: human, C8166 cells (T lymphocyte cell line). How it is done: as §1
Where [4] appears, read: read-out: Syncytia inhibition (EC50) 2.
Setting [5] is: read-out: Syncytia inhibition (EC50) 1.

Regarding `COC(=O)c1cc2c(c(OC)c1-c1ccc(N(C)C)cc1)OCO2` [Compound 5], the “toxicity (CC50) 2” value in data set [1] is at least 411.41 µg/mL. In addition, the EC50 in data set [2] (setting [4]) worked out at 0.14 µg/mL. In data set [2], the “Therapeutic index (TI)” value is given as over 2840.91 and the “anti-HIV-1 activity (in words)” value is “very significant anti-HIV-1 activity”.

Take `COC(=O)c1cc2c(c(OC)c1-c1ccc(N(C)C)c(C)c1)OCO2` [Compound 6]: the CC50 at 3 days in data set [3] (read-out: toxicity (CC50) 1) is over 1250 µM; in data set [3] (read-out: toxicity (CC50) 2) it was at least 358 µg/mL. Moreover, the 50% effective concentration (EC50) amounted to 490 nM in data set [2] (setting [5]) and 0.14 µg/mL in data set [2] (setting [4]). The “Therapeutic index (TI)” value in data set [2] is reported as over 2551.02.

`COC(=O)c1cc2c(c(OC)c1-c1ccc(N3CCOCC3)cc1)OCO2` [Compound 7]: the CC50 at 3 days is 881 µM in data set [3] (read-out: toxicity (CC50) 1) and 317 µg/mL in data set [3] (read-out: toxicity (CC50) 2). Moreover, the EC50 in data set [2] (setting [5]) stood at 640 nM; in data set [2] (setting [4]), 0.23 µg/mL. The “Therapeutic index (TI)” value in data set [2] is reported as 1376.35.

Turning to `COC(=O)c1cc2c(c(OC)c1-c1ccc(N(c3ccccc3)c3ccccc3)cc1)OCO2` [Compound 8], the results for the CC50 at 3 days in data set [3] (read-out: toxicity (CC50) 1) and in data set [3] (read-out: toxicity (CC50) 2) were 802 µM and 245 µg/mL, respectively. Moreover, the EC50 in data set [2] (setting [5]) stood at 930 nM; in data set [2] (setting [4]), 0.28 µg/mL. In addition, the “Therapeutic index (TI)” value in data set [2] amounted to 862.52.

As for `COc1c2c(cc(C(=O)O)c1-c1ccc(N(C)C)cc1)OCO2` [Compound 9], the 50% cytotoxic concentration (CC50) at 3 days in data set [3] (read-out: toxicity (CC50) 1) was found to be 649 µM; in data set [3] (read-out: toxicity (CC50) 2), 205 µg/mL. Moreover, the figures for the EC50 in data set [2] (setting [5]) and in data set [2] (setting [4]) were over 25000 nM and at least 7.88 µg/mL, respectively. The “Therapeutic index (TI)” value in data set [2] is listed as under 25.97. The “anti-HIV-1 activity (in words)” value in data set [2] was “activity declined notably”.

Consider `COC(=O)c1cc2c(c(OC)c1-c1ccc(N(C)C)cc1)OCO2.Cl` [Compound 10], for which the “toxicity (CC50) 2” value in data set [1] is at least 456.38 µg/mL. Besides, the 50% effective concentration (EC50) in data set [2] (setting [5]) was 420 nM. Besides, in data set [2] (setting [4]), the EC50 came to 0.15 µg/mL. Further, in data set [2], the “Therapeutic index (TI)” value is listed as over 2976.19 and the “anti-HIV-1 activity (in words)” value is reported as “activity was increased”.

On to `Br.COC(=O)c1cc2c(c(OC)c1-c1ccc(N(C)C)cc1)OCO2` [Compound 11], for which, in data set [1], the “toxicity (CC50) 2” value stood at 29.43 µg/mL. Besides, the concentration for a half-maximal effect (EC50) in data set [2] (setting [4]) was 0.26 µg/mL. For the same molecule, the “Therapeutic index (TI)” value in data set [2] is given as 114.19.

With `COC(=O)c1cc2c(c(OC)c1-c1ccc([N+](C)(C)Cc3ccccc3)cc1)OCO2.[Br-]` [Compound 12], the CC50 at 3 days in data set [3] (read-out: toxicity (CC50) 1) was determined as 53.3 µM; in data set [3] (read-out: toxicity (CC50) 2) it was 26.6 µg/mL. Further, the 50% effective concentration (EC50) turned out to be 7500 nM in data set [2] (setting [5]) and 3.74 µg/mL in data set [2] (setting [4]). In addition, the “Therapeutic index (TI)” value in data set [2] is recorded as 7.10.

In general, EC50 refers to the midpoint of the concentration-response curve. The CC50 is the concentration that lowers cell viability or growth by half.
